Experimental data: patent publication US12642796B2, “Method and device of treating chronic kidney disease-associated pruritus” (Avior, Inc., priority 2018, dated 2026)
“And” between values parts separate entries of the source, which are not always exact repeats. Equal values may be shown once.

How the values were obtained:
Assay type in all cases: in vivo, mouse
C57BL mice [1] = assay: Intradermal injection of SP in mice, scratching behavior at the injection site (Example 1)
Text: The method of treatment of pruritus was established using C57BL mice where substance P (SP) induced pruritus was created to induce the disease state.
Healthy male C57BL/6 mice ˜6-8 weeks of age and ranging from 21.2 to 26.8 grams in weight at study initiation were used in the Examples. The mice were acclimated for a minimum of 5 days prior to the beginning of the study. The mice were identified by tail mark and cage label. The study was not blinded. Mice were fed species-specific food, and food and water were supplied ad libitum to the animals.
Male C57BL mice were given an intradermal (ID) injection of 0.0168 μg of SP (N=4, Group 1) or PBS (N=2, Group 2) on either the right side only or on both sides. Scratching behavior at the injection site was monitored for 30 minutes from time of injection by two separate observers.
The original dose of 0.0168 μg SP (Group 1) was compared to a higher dose of 33.7 μg SP (N=4, Group 3). […] It was therefore concluded that the scratching behavior was a direct response to the presence and amount of SP.

C57BL/6 mice [2] = assay: Dose escalation of SP, mean scratch count (Example 4)
Protocol: The SP dose administered to male C57BL/6 mice was escalated and itching was recorded for analysis. Group 13 (N=8) received ID injection of 135 μg SP on the right side of the rostral back. Group 14 (N=8) received ID injection of 233 μg SP on the right side of the rostral back. At T0-60, immediately following dose administration, a camera began recording to monitor itching behavior. At T60, the final itching assessment was completed, camera recording ended, and the study was concluded.
The recordings were reviewed to calculate itching behavior. Two research associates reviewed the recordings and counted the number of scratches for each mouse during the 60-minute collection time. The mean of the two observations were recorded as the number of scratches per 60 minutes.
The scratching over time was observed per 10 minute time period for each animal tested. The data is set forth below in Table 6 and is shown graphically in FIG. 6.

C57BL mice [3] = assay: SP injection, scratches Groups 7-9, 0-30 minutes (Example 3)
Protocol: […] […] Group 9 (N=4) received SP in PBS at a dose of 0.5 mM/50 μL. Various scratching behavior was video recorded and assessed.
Group 7: All mice were placed in a clear cylindrical enclosure 30 minutes prior to testing to acclimate. An ID bolus injection of SP in sodium acetate was administered.
Groups 8 and 9: All mice were placed in a clear cylindrical enclosure 30 minutes prior to testing to acclimate. An ID bolus injection of SP in PBS was administered. Recording began immediately following injection of SP and recorded for 30 minutes.
Animals in Groups 7-9 were acclimated for […] prior to recording. Behavioral recording lasted for 30 minutes (T0-T30).
The number of scratches per 0-30 minutes for Groups 7-9 is given below in Table 2. The numbers for Groups 7 and 8 were averaged together.

C57BL/6 mice [4] = assay: SP and nalmefene injection, scratches Groups 10-12, 0-60 minutes (Example 3)
Protocol: Fifteen male C57BL/6 mice received a single intradermal (ID) bolus injection of substance P (SP) or PBS. Group 10 (N=6) received a single 50 μL injection of PBS. Group 11 (N=4) received SP in PBS at a dose of 0.5 mM/50 μl. […] Scratching behavior was video recorded and assessed.
Groups 10 and 11: All mice were placed in a clear cylindrical enclosure 60 minutes prior to testing to acclimate. An ID bolus injection of SP in PBS was administered. Recording began immediately following injection of SP and recorded for 60 minutes.
Group 12: All mice were placed in clear cylinder enclosures for 60 minutes prior to testing to acclimate. A SC bolus injection of nalmefene was administered. 30 minutes after the nalmefene injection, an ID bolus injection of SP in PBS was administered. Recording began immediately following injection of SP and recorded for 60 minutes.
Animals in Groups 10-12 were acclimated for 1 hour prior to recording. Behavioral recording lasted for 60 minutes (T0-T60). 6 animals were dosed for Group 12 but only 5 animals were tested due to one animal being excluded as an outlier due to no response to SP injection.
The number of scratches per 10-minute time interval for Groups 10-12 is given below in Table 3. The data is also shown graphically in FIG. 4.
The number of scratches per 0-30 minute and 30-60 minute time intervals is given below in Table 4 for Group 10 (PBS), Group 11 (0.5 mM SP), and Group 12 (0.75 mg nalmefene). The data is also shown graphically in FIG. 5.

[5] = Group 13, 135 μg SP ID, 0-10 min
[6] = Group 13, 135 μg SP ID, 10-20 min
[7] = Group 13, 135 μg SP ID, 20-30 min
[8] = Group 13, 135 μg SP ID, 30-40 min
[9] = Group 13, 135 μg SP ID, 40-50 min
[10] = Group 13, 135 μg SP ID, 50-60 min
[11] = Group 14, 233 μg SP ID, 0-10 min
[12] = Group 14, 233 μg SP ID, 10-20 min
[13] = Group 14, 233 μg SP ID, 20-30 min
[14] = Group 14, 233 μg SP ID, 30-40 min
[15] = Group 14, 233 μg SP ID, 40-50 min
[16] = Group 14, 233 μg SP ID, 50-60 min
[17] = 250 mM SP ID, Groups 7 and 8 averaged together
[18] = Group 11, SP 0.5 mM/50 μL ID, 0-10 min
[19] = Group 11, SP 0.5 mM/50 μL ID, 10-20 min
[20] = Group 11, SP 0.5 mM/50 μL ID, 20-30 min
[21] = Group 11, SP 0.5 mM/50 μL ID, 30-40 min
[22] = Group 11, SP 0.5 mM/50 μL ID, 40-50 min
[23] = Group 11, SP 0.5 mM/50 μL ID, 50-60 min

## SP: neuropeptide that plays a role in the induction and maintenance of pruritus; injected intradermally to induce scratching
C57BL mice [1]; 0.0168 μg SP ID vs PBS-injected mice, 30 minutes from injection, FIG. 2a
  local site scratching behavior: more frequent
C57BL mice [1]; 33.7 μg SP vs 0.0168 μg SP, FIG. 2b
  scratching in mice, higher vs lower SP dose: increased scratching
C57BL/6 mice [2]; [5]
  Mean Scratch Count, Avg.: 56.75
  Mean Scratch Count, individual animals: 127 and 58 and 5.5 and 22 and 57 and 21.5 and 91 and 72
C57BL/6 mice [2]; [6]
  Mean Scratch Count, Avg.: 26.44
  Mean Scratch Count, individual animals: 53.5 and 41.5 and 0 and 7 and 36 and 23 and 41 and 9.5
C57BL/6 mice [2]; [7]
  Mean Scratch Count, Avg.: 8.88
  Mean Scratch Count, individual animals: 0 (2×) and 4 and 7 and 2 and 12.5 and 22.5 and 23
C57BL/6 mice [2]; [8]
  Mean Scratch Count, Avg.: 3.69
  Mean Scratch Count, individual animals: 0 (4×) and 15 and 0.5 and 12 and 2
C57BL/6 mice [2]; [9]
  Mean Scratch Count, Avg.: 1.06
  Mean Scratch Count, individual animals: 0 (6×) and 5 and 3.5
C57BL/6 mice [2]; [10]
  Mean Scratch Count, Avg.: 0.31
  Mean Scratch Count, individual animals: 0 (6×) and 2 and 0.5
C57BL/6 mice [2]; [11]
  Mean Scratch Count, Avg.: 89.88
  Mean Scratch Count, individual animals: 123 and 131.5 and 108 and 85.5 and 8 and 33 and 145 and 85
C57BL/6 mice [2]; [12]
  Mean Scratch Count, Avg.: 30.06
  Mean Scratch Count, individual animals: 56.5 and 32 and 42 and 33 and 6 and 9 and 35 and 27
C57BL/6 mice [2]; [13]
  Mean Scratch Count, Avg.: 13.94
  Mean Scratch Count, individual animals: 7 and 6 and 27 and 21.5 and 5 and 10.5 and 16 and 18.5
C57BL/6 mice [2]; [14]
  Mean Scratch Count, Avg.: 5.19
  Mean Scratch Count, individual animals: 0 (2×) and 3 and 5 (2×) and 16.5 and 8 and 4
C57BL/6 mice [2]; [15]
  Mean Scratch Count, Avg.: 3.56
  Mean Scratch Count, individual animals: 3 and 0 (3×) and 4 and 7.5 and 1 and 13
C57BL/6 mice [2]; [16]
  Mean Scratch Count, Avg.: 6.31
  Mean Scratch Count, individual animals: 8 and 0 (2×) and 2 and 33 and 1 (2×) and 5.5
C57BL mice [3]; [17]
  Scratches, Facial, Avg.: 110
  Scratches, Facial, individual animals: 110 and 139 and 137 and 54
  Scratches, Left Side, Avg.: 39
  Scratches, Left Side, individual animals: 1 and 69 and 4 and 82
  Scratches, Other, Avg.: 38
  Scratches, Other, individual animals: 38 and 45 and 43 and 26
  Scratches, Rt. Side, Avg.: 12.5
  Scratches, Rt. Side, individual animals: 0 and 36 and 4 and 10
C57BL mice [3]; SP 0.5 mM ID (Group 9)
  Scratches, Facial, Avg.: 29.75
  Scratches, Facial, individual animals: 5 and 20 and 48 and 46
  Scratches, Left Side, Avg.: 12
  Scratches, Left Side, individual animals: 15 and 22 and 11 and 0
  Scratches, Other, Avg.: 21
  Scratches, Other, individual animals: 7 and 27 and 35 and 15
  Scratches, Rt. Side, Avg.: 16.75
  Scratches, Rt. Side, individual animals: 28 and 7 and 13 and 19
C57BL/6 mice [4]; Group 11, SP 0.5 mM, 0-30 min
  Scratches, Avg.: 87.5
  Scratches, individual animals: 119 and 67 and 94.5 and 69.5
C57BL/6 mice [4]; Group 11, SP 0.5 mM, 30-60 min
  Scratches, Avg.: 8.38
  Scratches, individual animals: 19.5 and 5.5 and 2.5 and 6
C57BL/6 mice [4]; [18]
  Scratches, Avg.: 53.75
  Scratches, individual animals: 57.5 and 66 and 49 and 42.5
C57BL/6 mice [4]; [19]
  Scratches, Avg.: 28
  Scratches, individual animals: 41.5 and 1 and 45 and 24.5
C57BL/6 mice [4]; [20]
  Scratches, Avg.: 5.75
  Scratches, individual animals: 20 and 0 and 0.5 and 2.5
C57BL/6 mice [4]; [21]
  Scratches, Avg.: 6
  Scratches, individual animals: 15.5 and 0 and 2.5 and 6
C57BL/6 mice [4]; [22]
  Scratches, Avg.: 0
  Scratches, individual animals: 0
C57BL/6 mice [4]; [23]
  Scratches, Avg.: 2.38
  Scratches, individual animals: 4 and 5.5 and 0 (2×)
